Measurements published in patent US20150164899A1, “INHIBITION OF ADAPTOR ASSOCIATED KINASE 1 FOR THE TREATMENT OF PAIN” (priority 2012, published 2015).
pIC50: −log10 of the molar value. Like-named read-outs stand apart in the source and are kept apart here. Blank lines part the entries; values can stand above or below the compound they belong to.

Assays:
GST-Xa-hAAK1 = biological target: T1, GST-Xa-hAAK1 (Homo sapiens, UniProt Q2M2I8); assay: Caliper assay; type: biochemical; settings: aryl ethers
T1 construct: made in house
Description: The assays were performed in U-bottom 384-well plates. The final assay volume was 30 μl prepared from 15 μl additions of enzyme and substrates (fluoresceinated peptide (5-FAM)-Aha-[…]-NH2 and ATP) and test compounds in assay buffer (10 mM Tris-HCL pH 7.4, 10 mM MgCl2, 0.01% Tween-20 and 1.0 mM DTT). The reactions were initiated by the combination of bacterially expressed, GST-Xa-hAAK1 with substrates and test compounds. The reactions were incubated at room temperature for 3 hours and terminated by adding 60 μl of 35 mM EDTA buffer to each sample. The reactions were analyzed on the Caliper LabChip 3000 (Caliper, Hopkinton, Mass.) by electrophoretic separation of the fluorescent substrate and phosphorylated product. […] The final concentration of reagents in the assays are ATP, 22 μM; (5-FAM)-Aha-[…]-NH2, 1.5 μM; GST-Xa-hAAK1, 3.5 nM; and DMSO, 1.6%. Dose response curves were generated to determine the concentration required inhibiting 50% of kinase activity (IC50). Compounds were dissolved at 10 mM in dimethylsulfoxide (DMSO) and evaluated at eleven concentrations. IC50 values were derived by non-linear regression analysis.

[1] = biological target: T2, AAK1 (full length human) in transfected HEK293F cells (Homo sapiens, UniProt Q2M2I8); assay: HEK281 cell-based assay (phospho-mu2 Western blot); settings: read-out: CBA IC50
T2 construct: expressed in transfected cells; host or cells: HEK293F

[2] = tested on: formalin-induced paw flinching; assay: formalin paw test; type: in vivo; settings: mice
Description: See example 5.4.1, above. The same test was used to confirm that the administration of an AAK1 inhibitor can also affect pain response.
Mice were tested for nociception with Automatic Nociception Analyzers (purchased from the Ozaki lab at University of California, San Diego). A metal band was placed around the left hind paw of each mouse with superglue 30 minutes prior to testing. After the 30-minute acclimation period, 20 μl of 5% formalin was subcutaneously injected in the dorsal surface of the left hind paw. Mice were individually housed in cylindrical chambers for 45 minutes. Fresh 5% formalin solution was prepared by diluting formaldehyde (Formalde-fresh 20%, Fisher Scientific, Fair Lawn, N.J.) with distilled water. Investigatory compounds were administered 30 minutes prior to formalin injection.
A computer software recorded flinches per minute, total flinches for Phase I (acute phase=first 8 minutes), and total flinches for Phase II (tonic phase between 20-40 minutes) through an electromagnetic field. See Yaksh T L, Ozaki G, McCumber D, Rathbun M, Svensson C, Malkmus S, Yaksh M C. An automated flinch detecting system for use in the formalin nociceptive bioassay. J Appl Physiol., 2001; 90:2386-402.
Various compounds of the invention were tested at different doses. Gabapentin and pregabalin were used as positive controls. Results are shown below in Table 2, wherein “*” means an effect equal to or greater than 50 percent of that of gabapentin at 200 mpk, “**” means an effect equal to or greater than 100 percent of that of gabapentin at 200 mpk, “sc” means subcutaneous administration, “ip” means in intraperitoneal administration, and “po” means oral administration.

[3] = HEK281 cell-based assay, pyrazolo[1,5-a]pyrimidine-based inhibitors

T1 sequence (Q2M2I8 whole entry): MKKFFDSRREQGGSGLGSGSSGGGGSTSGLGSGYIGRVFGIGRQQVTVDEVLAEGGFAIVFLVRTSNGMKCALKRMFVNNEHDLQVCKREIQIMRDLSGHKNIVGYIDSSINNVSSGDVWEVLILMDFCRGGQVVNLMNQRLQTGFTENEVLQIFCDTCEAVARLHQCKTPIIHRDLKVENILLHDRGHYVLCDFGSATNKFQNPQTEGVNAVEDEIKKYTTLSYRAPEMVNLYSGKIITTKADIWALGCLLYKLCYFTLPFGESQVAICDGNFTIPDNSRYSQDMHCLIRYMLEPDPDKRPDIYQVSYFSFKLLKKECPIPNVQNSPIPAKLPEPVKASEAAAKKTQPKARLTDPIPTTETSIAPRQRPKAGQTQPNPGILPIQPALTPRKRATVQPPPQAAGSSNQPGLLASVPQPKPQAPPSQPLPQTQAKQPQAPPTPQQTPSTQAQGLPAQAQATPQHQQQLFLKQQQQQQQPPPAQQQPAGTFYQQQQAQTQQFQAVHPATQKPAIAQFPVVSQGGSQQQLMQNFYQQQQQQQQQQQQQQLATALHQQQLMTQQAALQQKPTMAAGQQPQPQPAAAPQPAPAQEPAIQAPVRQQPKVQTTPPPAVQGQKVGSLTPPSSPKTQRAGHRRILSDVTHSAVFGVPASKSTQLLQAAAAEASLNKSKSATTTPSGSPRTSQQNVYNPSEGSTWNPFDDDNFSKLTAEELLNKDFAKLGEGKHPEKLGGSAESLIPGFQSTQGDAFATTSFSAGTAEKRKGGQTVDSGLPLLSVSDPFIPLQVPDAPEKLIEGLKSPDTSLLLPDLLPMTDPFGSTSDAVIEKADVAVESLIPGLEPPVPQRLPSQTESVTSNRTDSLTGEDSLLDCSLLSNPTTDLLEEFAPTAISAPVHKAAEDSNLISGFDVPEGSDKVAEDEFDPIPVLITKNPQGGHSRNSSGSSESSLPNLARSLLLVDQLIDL
T2 sequence (Q2M2I8 1-863 isoform Q2M2I8-2): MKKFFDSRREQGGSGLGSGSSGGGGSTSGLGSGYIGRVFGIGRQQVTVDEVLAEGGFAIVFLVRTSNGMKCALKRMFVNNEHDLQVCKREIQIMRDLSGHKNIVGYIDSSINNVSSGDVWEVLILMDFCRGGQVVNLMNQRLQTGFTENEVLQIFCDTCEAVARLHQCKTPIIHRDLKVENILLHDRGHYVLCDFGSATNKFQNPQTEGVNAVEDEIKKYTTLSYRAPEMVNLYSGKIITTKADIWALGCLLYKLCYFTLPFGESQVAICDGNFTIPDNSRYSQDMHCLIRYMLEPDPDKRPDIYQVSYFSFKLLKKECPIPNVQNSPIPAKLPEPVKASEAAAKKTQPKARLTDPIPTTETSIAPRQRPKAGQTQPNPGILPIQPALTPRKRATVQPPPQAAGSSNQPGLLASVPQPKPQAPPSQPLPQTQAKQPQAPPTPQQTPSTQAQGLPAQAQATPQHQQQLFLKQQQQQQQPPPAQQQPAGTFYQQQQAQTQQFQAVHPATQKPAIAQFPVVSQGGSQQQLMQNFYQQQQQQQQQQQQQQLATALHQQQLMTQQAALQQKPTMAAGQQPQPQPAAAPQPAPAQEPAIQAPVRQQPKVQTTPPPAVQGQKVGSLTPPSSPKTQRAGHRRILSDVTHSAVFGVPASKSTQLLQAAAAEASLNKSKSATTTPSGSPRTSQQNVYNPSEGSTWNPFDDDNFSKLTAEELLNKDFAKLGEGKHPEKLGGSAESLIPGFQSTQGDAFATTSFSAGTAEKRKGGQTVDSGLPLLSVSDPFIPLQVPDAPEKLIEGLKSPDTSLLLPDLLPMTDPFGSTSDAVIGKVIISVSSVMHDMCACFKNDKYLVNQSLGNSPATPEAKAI

Structure (SMILES): CC(C)C[C@@H](N)COc1ccc2c(c1)OC(C)c1cnccc1-2 (some centres unmarked)
pIC50 (GST-Xa-hAAK1; class symbols): 7.00 to 8.00
pIC50 ([1]; aryl ethers, numeric values): < 6.52

Structure (SMILES): CN(CCNc1ccc2ncc(-c3ccc(C(N)=O)cc3)n2n1)C(=O)OC(C)(C)C [tert-butyl (2-((3-(4-carbamoylphenyl)imidazo[1,2-b]pyridazin-6-yl)amino)ethyl)(methyl)carbamate]
Effect ([2]; 60 mpk sc): ** (an effect equal to or greater than 100% of that of gabapentin at 200 mpk)
Effect ([2]; 100 mpk po): ** (an effect equal to or greater than 100% of that of gabapentin at 200 mpk)

Structure (SMILES): COc1ccccc1-c1cnn2ccc(N3CCN(C(=O)OC(C)C)CC3)nc12 [isopropyl 4-(3-(2-methoxyphenyl)pyrazolo[1,5-a]pyrimidin-5-yl)piperazine-1-carboxylate]
Effect ([2]; 30 mpk sc): ** (an effect equal to or greater than 100% of that of gabapentin at 200 mpk)

Structure (SMILES): COc1ncccc1-c1cnc2ccc(N3CC[C@H](N(C)C(=O)OC(C)C)C3)nn12 [(S)-isopropyl (1-(3-(2-methoxypyridin-3-yl)imidazo[1,2-b]pyridazin-6-yl)pyrrolidin-3-yl)(methyl)carbamate]
Effect ([2]; 10 mpk po): * (an effect equal to or greater than 50% of that of gabapentin at 200 mpk)
Effect ([2]; 30 mpk po): ** (an effect equal to or greater than 100% of that of gabapentin at 200 mpk)
Effect ([2]; 60 mpk po): ** (an effect equal to or greater than 100% of that of gabapentin at 200 mpk)

Structure (SMILES): CC(C)C[C@@H](N)COc1ccc2c(c1)OCc1cnccc1-2 [(R)-1-(5H-chromeno[3,4-c]pyridin-8-yloxy)-4-methylpentan-2-amine]
Effect ([2]; 10 mpk sc, given as a number, relative to gabapentin at 200 mpk): 45%
Effect ([2]; 30 mpk sc): * (an effect equal to or greater than 50% of that of gabapentin at 200 mpk)

Structure (SMILES): NCc1ccc(-c2cnc3ccc(NCCOC4CCCC4)nn23)cc1 [3-(4-(aminomethyl)phenyl)-N-(2-(cyclopentyloxy)ethyl)imidazo[1,2-b]pyridazin-6-amine]
Effect ([2]; 60 mpk sc): ** (an effect equal to or greater than 100% of that of gabapentin at 200 mpk)
Effect ([2]; 100 mpk sc): ** (an effect equal to or greater than 100% of that of gabapentin at 200 mpk)

Structure (SMILES): CC(C)(C)OC(=O)N1CCC[C@H]1CNc1ccc2ncc(-c3ccc(CN)cc3)n2n1 [(S)-tert-butyl 2-(((3-(4-(aminomethyl)phenyl)imidazo[1,2-b]pyridazin-6-yl)amino)methyl)pyrrolidine-1-carboxylate]
Effect ([2]; 60 mpk sc): ** (an effect equal to or greater than 100% of that of gabapentin at 200 mpk)

Structure (SMILES): COc1ncccc1-c1cnn2ccc(N3CCN(C(=O)OC(C)C)CC3)nc12 [isopropyl 4-(3-(2-methoxypyridin-3-yl)pyrazolo[1,5-a]pyrimidin-5-yl)piperazine-1-carboxylate]
Effect ([2]; 10 mpk po): * (an effect equal to or greater than 50% of that of gabapentin at 200 mpk)
Effect ([2]; 30 mpk po): ** (an effect equal to or greater than 100% of that of gabapentin at 200 mpk)

Structure (SMILES): NCc1ccc(-c2cnc3ccc(NCCCc4ccccc4)nn23)cc1 [3-(4-(aminomethyl)phenyl)-N-(3-phenylpropyl)imidazo[1,2-b]pyridazin-6-amine]
Effect ([2]; 30 mpk ip): ** (an effect equal to or greater than 100% of that of gabapentin at 200 mpk)

Structure (SMILES): CCCCNc1ccc2ncc(-c3ccc(C(=O)NCCN)cc3)n2n1 [N-(2-aminoethyl)-4-(6-(butylamino)imidazo[1,2-b]pyridazin-3-yl)benzamide]
Effect ([2]; 30 mpk ip): ** (an effect equal to or greater than 100% of that of gabapentin at 200 mpk)

The next lines start with results.

pIC50 (GST-Xa-hAAK1; class symbols): 6.00 to 7.00
Structure (SMILES): CC(C)C[C@H](N)COc1ccc2c(c1)OC(C1CC1)c1cnccc1-2 (some centres unmarked) [drawing 36]

pIC50 (GST-Xa-hAAK1; class symbols): 7.00 to 8.00
pIC50 ([1]; aryl ethers, numeric values): 7.60
Structure (SMILES): CC(C)C[C@H](N)COc1ccc2c(c1)OC(C)c1cnccc1-2 (some centres unmarked) [drawing 31]

pIC50 (GST-Xa-hAAK1; numeric values): 6.53
Structure (SMILES): N[C@@H](COc1ccc2c(c1)OCc1cnccc1-2)Cc1ccccc1

pIC50 (GST-Xa-hAAK1; class symbols): 8.00 to 9.00
pIC50 ([1]; aryl ethers, numeric values): 7.74
Structure (SMILES): CC(C)C[C@H](N)COc1ccc2c(c1)OC(C1CC1)c1cnccc1-2 (some centres unmarked) [drawing 37]

pIC50 (GST-Xa-hAAK1; numeric values): 9.07
pIC50 ([1]; aryl ethers, numeric values): 8.60
Structure (SMILES): CC(C)C[C@H](N)COc1cc2c(cc1Br)-c1ccncc1CO2

pIC50 (GST-Xa-hAAK1; numeric values): 7.92
pIC50 ([1]; aryl ethers, numeric values): 7.25
Structure (SMILES): CCC1Oc2cc(OC[C@@H](N)CC(C)C)ccc2-c2ccncc21 (some centres unmarked)

pIC50 (GST-Xa-hAAK1; numeric values): 8.31
Structure (SMILES): CC(C)C[C@H](N)COc1ccc2c(c1)OC(C)c1cnccc1-2 (some centres unmarked) [drawing 30]

pIC50 [1, 3]: ≥ 8.00
Structure (SMILES): COc1ccccc1-c1cnn2ccc(NC[C@@H]3CCCN3C(=O)OC(C)(C)C)nc12 [(S)-tert-butyl 2-(((3-(2-methoxyphenyl)pyrazolo[1,5-a]pyrimidin-5-yl)amino)methyl)pyrrolidine-1-carboxylate]
Effect ([2]; 10 mpk sc): * (an effect equal to or greater than 50% of that of gabapentin at 200 mpk)
Effect ([2]; 60 mpk sc): * (an effect equal to or greater than 50% of that of gabapentin at 200 mpk)

pIC50 (GST-Xa-hAAK1; class symbols): 8.00 to 9.00
pIC50 ([1]; aryl ethers, class symbols): 8.00 to 9.00
Structure (SMILES): CC(C)C[C@H](N)COc1ccc2c(c1)OCc1cnc(N)cc1-2

pIC50 (GST-Xa-hAAK1; class symbols): 7.00 to 8.00
pIC50 ([1]; aryl ethers, numeric values): 7.74
Structure (SMILES): CCc1cc2c(cc1OC[C@@H](N)CC(C)C)OC(CC)c1cnccc1-2 (some centres unmarked)

pIC50 [1, 3]: ≥ 8.00
Structure (SMILES): CC(C)(C)OC(=O)N1CCC[C@H]1CNc1ccn2ncc(-c3ccncc3)c2n1 [(S)-tert-butyl 2-(((3-(pyridin-4-yl)pyrazolo[1,5-a]pyrimidin-5-yl)amino)methyl)pyrrolidine-1-carboxylate]
Effect ([2]; 30 mpk sc): ** (an effect equal to or greater than 100% of that of gabapentin at 200 mpk)

pIC50 (GST-Xa-hAAK1; class symbols): 7.00 to 8.00
Structure (SMILES): CC(C)C[C@@H](N)COc1ccc2c(c1)OCc1cnccc1-2 [drawing 25]
